A short description of the data set: UV absorption spectroscopic data (λmax, ε, E 1%/1 cm) of the merocyanine UV absorbers. It counts as physicochemical. Further details: λmax: unit not given beside the values. As to conditions: for λmax [nm]: Table MC1; for E (1%, 1 cm) / ε / λmax / λmax (sh): Table MC3; for ε: at λmax; for λmax (sh): shoulder.

Turning to `CCOC(=O)/C(C#N)=C1\C=C(NC2CCCCC2NC2=C/C(=C(/C#N)C(=O)OCC)CC(C)(C)C2)CC(C)(C)C1` (centres unmarked) [MC09], the “λmax [nm]” value (in MeOH) is given as 370 (MeOH) nm.

For `CC1(C)CC(NC2CCCCC2NC2=CC(=C(C#N)C#N)CC(C)(C)C2)=CC(=C(C#N)C#N)C1` (centres unmarked) [MC34], the “λmax [nm]” value (in MeOH) was 383 (MeOH) nm.

`CCCCCCN(C=CC=C(C(C)=O)S(=O)(=O)c1ccc(C)cc1)CC` [MC36]: the “λmax [nm]” value (in MeOH) is reported as 385 (MeOH) nm.

Turning to `CCCCC(CC)COC(=O)C(C#N)=CC=CN(CC)CC` (centres unmarked) [MC39], the “E (1%, 1 cm)” value is 2037 and the ε was 62400 L/mol/cm. In addition, the “λmax [nm]” value (in EtOH) is reported as 380 (EtOH) nm. The compound also yielded a λmax (solvent not given) of 380.

Turning to `Cc1ccc(S(=O)(=O)/C(C#N)=C\C=C2\OCC(C)(C)N2C)cc1` [MC06], the “λmax [nm]” value (in MeOH) is given as 374 (MeOH) nm.

In the case of `COC(=O)C(=C/C=C/N1CCOCC1)C(=O)OC` [MC178], the “E (1%, 1 cm)” value amounted to 1476 and the ε came to 37700 L/mol/cm. The same compound registered a λmax (solvent not given) of 373.

Regarding `CC(=O)/C(C(=O)Nc1ccc(NC(=O)/C(C(C)=O)=C2/C=C(N3CCCC3)CC(C)(C)C2)cc1)=C1\C=C(N2CCCC2)CC(C)(C)C1` [MC31], the “λmax [nm]” value (in MeOH) is 394 (MeOH) nm.

Take `CC1(C)CC(NCCCOCCOCCNC2=CC(=C3C(=O)OC(C)(C)OC3=O)CC(C)(C)C2)=CC(=C2C(=O)OC(C)(C)OC2=O)C1` [MC13]: the “λmax [nm]” value (in MeOH) was 380 (MeOH) nm.

`CCCCC(CC)CNC(=O)/C(C#N)=C1/C=C(N2CCN(C3=C/C(=C(\C#N)C(=O)NCC(CC)CCCC)CC(C)(C)C3)C(C)C2)CC(C)(C)C1` (centres unmarked) [MC26]: the “λmax [nm]” value (in MeOH) was 374 (MeOH) nm.

Where the note is “acetonitrile”, `CCOC(=O)C(C(=O)OCC)=C1C=C(N2CCOCC2)CC(C)(C)C1` [MC186] showed a λmax of 376.

Regarding `CC(=O)/C(C(=O)OCC(C)C)=C1/C=C(NCC(C)(CNC2=C/C(=C(\C(C)=O)C(=O)OCC(C)C)CC(C)(C)C2)CNC2=C/C(=C(\C(C)=O)C(=O)OCC(C)C)CC(C)(C)C2)CC(C)(C)C1` [MC27], the “λmax [nm]” value (in MeOH) was 385 (MeOH) nm.

As for `COC(=O)C(=C/C=C/N1CCCCC1)C(=O)OC` [MC179], the “E (1%, 1 cm)” value came out at 1953 and the ε is 49500 L/mol/cm. The compound further showed a λmax (solvent not given) of 377.

On to `CCOC(=O)/C(=C1\C=C(NCCNC2=C/C(=C(\C(=O)OCC)S(=O)(=O)c3ccccc3)CCC2)CCC1)S(=O)(=O)c1ccccc1` [MC05], for which the “λmax [nm]” value (in MeOH) is 362 (MeOH) nm.

Consider `CC(=O)/C(C(=O)NCCNC(=O)/C(C(C)=O)=C1/C=C(N2CCCCC2)CCC1)=C1\C=C(N2CCCCC2)CCC1` [MC30], for which the “λmax [nm]” value (in MeOH) is reported as 385 (MeOH) nm.

With `CCOC(=O)C(C(=O)OCC)=C1C=C(NCCCCCCNC2=CC(=C(C(=O)OCC)C(=O)OCC)CCC2)CCC1` [MC19], under “in MeOH”, the “λmax [nm]” value is reported as 373 (MeOH) nm.

Regarding `CCCCN(/C=C/C=C(C(=O)OCC)C(=O)OCC)CCCC` [MC182], the “E (1%, 1 cm)” value was determined as 1423 and the ε stood at 60600 L/mol/cm. The same compound gave a λmax (solvent not given) of 377.

As for `COCCOC(=O)/C(C(C)=O)=C1/C=C(NCCC(C)(C)CC(C)CNC2=C/C(=C(\C(C)=O)C(=O)OCCOC)CC(C)C2)CC(C)C1` (centres unmarked) [MC29], the “λmax [nm]” value (in MeOH) is on record as 383 (MeOH) nm.

As to `CCOC(=O)/C(C#N)=C1\C=C(NCCCCCCNC2=C/C(=C(/C#N)C(=O)OCC)CCC2)CCC1` [MC18], the “λmax [nm]” value (in MeOH) was 384 (MeOH) nm.

For `CCCCC(CC)(CCCNC1=C/C(=C(/C(=O)OCC)C(=O)c2ccc(OC)cc2)CCC1)CNC1=C/C(=C(/C(=O)OCC)C(=O)c2ccc(OCC)cc2)CCC1` (centres unmarked) [MC28], the “λmax [nm]” value (in MeOH) is listed as 373 (MeOH) nm.

As to `CCOC(=O)C(C(=O)OCC)=C1C=C(NCc2ccc(CNC3=CC(=C(C(=O)OCC)C(=O)OCC)CCC3)cc2)CCC1` [MC14], the “λmax [nm]” value (in MeOH) is reported as 392 (MeOH) nm.

Regarding `COC(=O)C(=C/C=C/N(C)C)C(=O)OC` [MC177], the “E (1%, 1 cm)” value is on record as 2488 and the ε is 53000 L/mol/cm. Moreover, the λmax (solvent not given) is 373.

Turning to `CCOC(=O)C(=C/C=C/N1CCOCC1)C(=O)OCC` [MC181], the “E (1%, 1 cm)” value is 1684 and the ε amounted to 47700 L/mol/cm. For the setting “solvent not given”, the λmax is on record as 371.

For `CCCCC(CC)COC(=O)/C(C#N)=C/C=C/N1CCN(/C=C/C=C(\C#N)C(=O)OCC(CC)CCCC)CC1` (centres unmarked) [MC174], the “E (1%, 1 cm)” value was 2650 and the ε was 146 379. The same compound came in with a λmax (solvent not given) of 398.

For the compound `COc1cc(OC(=O)/C(C(C)=O)=C2/C=C(NCC(C)NC3=C/C(=C(\C(C)=O)C(=O)Oc4cc(OC)c(OC)c(OC)c4)CC(C)(C)C3)CC(C)(C)C2)cc(OC)c1OC` (centres unmarked) [MC22], the “λmax [nm]” value (in MeOH) is 395 (MeOH) nm.

For `CCOC(=O)/C(=C1\C=C(NC(C)CC)CCC1)C(OC)(C(=O)OCC)/C(C(=O)OCC)=C1/C=C(NC(C)CC)CCC1` (centres unmarked) [MC33], the “λmax [nm]” value (in MeOH) is given as 375 (MeOH) nm.

For `CCCCC(CC)COC(=O)/C(C#N)=C\C=C\N(CC)CCCCN(/C=C/C=C(/C#N)C(=O)OCC(CC)CCCC)CC` (centres unmarked) [MC183], the “E (1%, 1 cm)” value is 2570 and the ε worked out at 111000 L/mol/cm. For the same compound, for the setting “solvent not given”, the “λmax (sh)” value was found to be 370 and the λmax was 386.

In the case of `CCCCC(CC)COC(=O)/C(=C1\C=C(NCCCNC2=C/C(=C(\C(=O)OCC(CC)CCCC)S(=O)(=O)c3ccccc3)CCC2)CCC1)S(=O)(=O)c1ccccc1` (centres unmarked) [MC17], under “in MeOH”, the “λmax [nm]” value was 385 (MeOH) nm.

As for `CCOC(=O)C(C(=O)OCC)=C1C=C(NCC2(C)CC(NC3=CC(=C(C(=O)OCC)C(=O)OCC)CC(C)(C)C3)CC(C)(C)C2)CC(C)(C)C1` (centres unmarked) [MC25], the “λmax [nm]” value (in MeOH) is given as 395 (MeOH) nm.

Consider `CCOC(=O)C(C(=O)OCC)=C1C=C(NC2CCCCC2NC2=CC(=C(C(=O)OCC)C(=O)OCC)CC(C)(C)C2)CC(C)(C)C1` (centres unmarked) [MC10], for which, under “in MeOH”, the “λmax [nm]” value is on record as 362 (MeOH) nm.

With `CCCCC(CC)COC(=O)/C(C#N)=C\C=C\N(CC)CCCN(/C=C/C=C(/C#N)C(=O)OCC(CC)CCCC)CC` (centres unmarked) [MC173], the “E (1%, 1 cm)” value is on record as 1545 and the ε was 92000 L/mol/cm. The λmax (solvent not given) worked out at 390.

With `CN(CCCNC1=CC(=C2C(=O)CC(C)(C)CC2=O)CCC1)CCCNC1=CC(=C2C(=O)CC(C)(C)CC2=O)CCC1` [MC12], the “λmax [nm]” value (in MeOH) is 392 (MeOH) nm.

Regarding `COC(=O)C(=C/C=C/N(C(C)C)C(C)C)C(=O)OC` [MC180], the “E (1%, 1 cm)” value stood at 2111 and the ε came to 56800 L/mol/cm. Also, for the setting “solvent not given”, the λmax was found to be 378.

Consider `CCCCC(CC)COC(=O)/C(C#N)=C1/C=C(NCCNC2=C/C(=C(\C#N)C(=O)OCC(CC)CCCC)CC(C)(C)C2)CC(C)(C)C1` (centres unmarked) [MC01], for which the “λmax [nm]” value (in MeOH) is 362 (MeOH) nm.

With `CCCCCCCCOC(=O)/C(=C\C=C\N(CC)CC)S(=O)(=O)c1ccccc1` [MC172], the “E (1%, 1 cm)” value was 1724 and the ε came out at 72700 L/mol/cm. The same compound had a λmax (solvent not given) of 371.

In the case of `CCCCC(CC)COC(=O)/C(C#N)=C1\C=C(N2CCOCC2)CC(C)(C)C1` (centres unmarked) [MC184], the λmax (acetonitrile) is given as 399.

With `CN(C)/C=C/C=C1C(=O)OC(C)(C)OC1=O` [MC175], the “E (1%, 1 cm)” value turned out to be 3022 and the ε came to 68000 L/mol/cm. In addition, the λmax (solvent not given) stood at 383.

Take `COC(=O)C(C(=O)OC)=C1C=C(NC2CCCCC2NC2=CC(=C(C(=O)OC)C(=O)OC)CCC2)CCC1` (centres unmarked) [MC35]: where the note is “in MeOH”, the “λmax [nm]” value is listed as 374 (MeOH) nm.

In the case of `CCCCC(CC)COC(=O)/C(C#N)=C1\C=C(NC(C)CC)CC(C)(C)C1` (centres unmarked) [MC185], for the setting “acetonitrile”, the λmax amounted to 388 and the “λmax (sh)” value came to 368.

Take `CCOC(=O)/C(C#N)=C1\C=C(NC2CC(C)(C)CC(C)(CNC3=C/C(=C(\C#N)C(=O)OCC)CC(C)(C)C3)C2)CC(C)(C)C1` (centres unmarked) [MC24]: the “λmax [nm]” value (in MeOH) was 388 (MeOH) nm.

`CCCCCCNC(=O)/C(=C1\C=C(NCCCNC2=C/C(=C(\C(=O)NCCCCCC)S(=O)(=O)c3ccccc3)CCC2)CCC1)S(=O)(=O)c1ccccc1` [MC16]: for the setting “in MeOH”, the “λmax [nm]” value is on record as 390 (MeOH) nm.

For `CCOC(=O)/C(C#N)=C1\C=C(NCCN(CCNC2=C/C(=C(/C#N)C(=O)OCC)CC(C)(C)C2)CCNC2=C/C(=C(\C#N)C(=O)OCC)CC(C)(C)C2)CC(C)(C)C1` [MC11], the “λmax [nm]” value (in MeOH) is given as 375 (MeOH) nm.

Turning to `CC1(C)CC(NCCNC2=CC(=C(C#N)C#N)CC(C)(C)C2)=CC(=C(C#N)C#N)C1` [MC04], the “λmax [nm]” value (in MeOH) is 361 (MeOH) nm.

For `CCOC(=O)C(C(=O)OCC)=C1C=C(NCCNC2=CC(=C(C(=O)OCC)C(=O)OCC)CC(C)(C)C2)CC(C)(C)C1` [MC03], the “λmax [nm]” value (in MeOH) is listed as 372 (MeOH) nm.

As for `CCOC(=O)C(C(=O)OCC)=C1C=C(N2CCN(C3=CC(=C(C(=O)OCC)C(=O)OCC)CC(C)(C)C3)CC2)CC(C)(C)C1` [MC08], the “λmax [nm]” value (in MeOH) was 373 (MeOH) nm.

These data come from US7407648B2, “Merocyanine derivatives for cosmetic use” (Ciba Specialty Chemicals Corp., priority 2002, dated 2008).
